According to US20120041019A1, “PROTEASE INHIBITORS” (priority 2008, published 2012):
Like-named read-outs stand apart in the source and are kept apart here.

Legend:
[1] = test system: HIV-1LAI; experiment: Cell infectivity assay (HIV-1LAI infection of CEM-T4 cells, p24 readout); assay type: cell-based; settings: for IC50: Human immunodeficiency virus 1, CEM-T4 cells infected with HIV-1LAI, read-out: HIV PI IC50 (nM) (Cell Infectivity Assay); for loss in potency between cell free assay experiments and cell infectivity assay experiments: comparison of cell free and cell infectivity IC50
Protocol: Procedure—cell infectivity assay. The T-cell-tropic strain HIV-1LAI was used to infect CEM-T4 cells over a dose range of the protease inhibitor compounds. CEM-T4 cells were grown in RPMI 1640 medium supplemented with 10% heat-inactivated fetal bovine serum, penicillin (100 units/mL), streptomycin (100 ug/mL), and polybrene (2 ug/mL) at 37° C. with 5% CO2. The PI dose range covered a total of nine 3:1 dilutions from 5000 nM to less than 1 nM. The tittered virus was added to wells of CEM cells (pre-treated with protease inhibitor [PI] dilution series for 1 h) at a low multiplicity of infection (MOI=0.01) and incubated for 4 h at 37° C. The cells then were washed three times with PBS (GIBCO/BRL), resuspended in triplicate wells each with 1 ml of culture medium containing the same concentration of PI as the initial pre-incubation and further incubated at 37° C. in 5% CO2. Each well of the 24-well plate contains 1×10̂5 cells upon incubation initiation. The cells were fed every two days with fresh PI at the appropriate concentration. Samples were scored for cytopathic effect on day 4, and if consistent CPE was seen throughout the various wells, the supernatants was collected for p24 assay. Otherwise, the cultures were maintained with feeding every other day until day 8, at which point the p24 were initiated.

[2] = biological target: T1, HIV-1 Protease (Human immunodeficiency virus type 1 group M subtype B, UniProt P04585); experiment: Cell free assay (SensoLyte 490 HIV-1 Protease Assay Kit); assay type: biochemical
T1 construct: SensoLyte™ 490 HIV-1 Protease Assay Kit
Protocol: Procedure—cell free assay. The cell free assays were conducted according to the test kit protocol provided with the SensoLyte™ 490 HIV-1 Protease Assay Kit, available from AnaSpec (San Jose, Calif.).

[3] = Table 2 Activity Data, read-out: HIV PI IC50 (nM) (Cell-Free Assay)

SMILES | IC50 [1] | IC50 [2, 3] | loss in potency between cell free assay experiments and cell infectivity assay experiments [1] | further results
CCC(C)(C)C(=O)C(=O)N1CCCCC1C(=O)OC(CCc1ccc(OC)c(OC)c1)c1cccc(OCCNC(=O)NC(C(=O)NC(Cc2ccccc2)C(O)CN(CC(C)C)S(=O)(=O)c2ccc(N)cc2)C(C)C)c1 (stereo not drawn) [Compound A10] | 48.1 nM | – | – | IC50 [2]: 3.9 nM
CCC(C)(C)C(=O)C(=O)N1CCCCC1C(=O)OC(CCc1ccc(OC)c(OC)c1)c1cccc(OCCNC(=O)CCCOC(=O)NC(Cc2ccccc2)C(O)CN(CC(C)C)S(=O)(=O)c2ccc([N+](=O)[O-])cc2)c1 (stereo not drawn) [Compound A3] | – | 11.5 nM | – | –
Cc1cccc(C)c1OCC(=O)N[C@@H](Cc1ccccc1)[C@@H](O)C[C@H](Cc1ccccc1)NC(=O)[C@H](C(C)C)N1CCCNC1=O [Lopinavir, lopinavir, reference compound] | 18.9 nM | – | significant loss of potency | IC50 ([2]; Table 1 Activity data, read-out: HIV PI IC50 (nM) (Cell free assay)): 0.9 nM
CCC(C)(C)C(=O)C(=O)N1CCCCC1C(=O)OC(CCc1ccc(OC)c(OC)c1)c1cccc(OCC(=O)NCCCOC(=O)NC(Cc2ccccc2)C(O)CN(CC(C)C)S(=O)(=O)c2ccc(OC)cc2)c1 (stereo not drawn) [Compound A4] | – | 8.4 nM | – | –
CCC(C)(C)C(=O)C(=O)N1CCCCC1C(=O)OC(CCc1ccc(OC)c(OC)c1)c1cccc(OCCNC(=O)NC(CC(N)=O)C(=O)NC(Cc2ccccc2)C(CN(CC(C)C)S(=O)(=O)c2ccc(N)cc2)OC)c1 (stereo not drawn) [Compound A9] | 2.3 nM | – | little or no loss in potency | IC50 [2]: 1.8 nM
CCC(C)(C)C(=O)C(=O)N1CCCCC1C(=O)OC(CCc1ccc(OC)c(OC)c1)c1cccc(OCCNC(=O)COCC2OCCC2OC(=O)NC(Cc2ccccc2)C(O)CN(CC(C)C)S(=O)(=O)c2ccc(N)cc2)c1 (stereo not drawn) [Compound A13] | – | 51 nM | – | –
CCC(C)(C)C(=O)C(=O)N1CCCCC1C(=O)OC(CCc1ccc(OC)c(OC)c1)c1cccc(OCC(=O)NC(CC(N)=O)C(=O)NC(Cc2ccccc2)C(CN(CC(C)C)S(=O)(=O)c2ccc(N)cc2)OC)c1 (stereo not drawn) [Compound A7] | 14 nM | – | little or no loss in potency | IC50 [2]: 6.6 nM
CCC(C)(C)C(=O)C(=O)N1CCCCC1C(=O)OC(CCc1ccc(OC)c(OC)c1)c1cccc(OCC(=O)NCCCOC(=O)NC(Cc2ccccc2)C(O)CN(CC(C)C)S(=O)(=O)c2ccc(N)cc2)c1 (stereo not drawn) [Compound A2] | – | 7.3 nM | – | –
CCC(C)(C)C(=O)C(=O)N1CCCC[C@H]1C(=O)O[C@H](CCc1ccc(OC)c(OC)c1)c1cccc(NC(=O)CCC(=O)N[C@@H](Cc2ccccc2)[C@H](O)CC(CC(C)C)S(=O)(=O)c2ccc([N+](=O)[O-])cc2)c1 (stereo partly drawn) [Compound A8] | – | – | – | IC50 ([2]; assay not named, follows the cell free data of Table 2, read-out: IC50 value): 339 nM
CC(C)CN(C[C@@H](O)[C@H](Cc1ccccc1)NC(=O)O[C@H]1CCOC1)S(=O)(=O)c1ccc(N)cc1 [Amprenavir, amprenavir, reference compound] | 171 nM | – | significant loss of potency | –
CCC(C)(C)C(=O)C(=O)N1CCCCC1C(=O)OC(CCc1ccc(OC)c(OC)c1)c1cccc(OCC(=O)NC(C(=O)NC(Cc2ccccc2)C(O)CN(CC(C)C)S(=O)(=O)c2ccc(N)cc2)C(C)C)c1 (stereo not drawn) [Compound A5] | 3.3 nM | – | little or no loss in potency | IC50 [2]: 7.9 nM
CCC(C)(C)C(=O)C(=O)N1CCCCC1C(=O)OC(CCc1ccc(OC)c(OC)c1)c1cccc(OCC(=O)NC(CC(N)=O)C(=O)NC(Cc2ccccc2)C(O)CN(CC(C)C)S(=O)(=O)c2ccc(N)cc2)c1 (stereo not drawn) [Compound A14] | – | 3.5 nM | – | –
CCC(C)(C)C(=O)C(=O)N1CCCCC1C(=O)OC(CCc1ccc(OC)c(OC)c1)c1cccc(OCC(=O)NCCCOC(=O)NC(Cc2ccccc2)C(O)CN(CC(C)C)S(=O)(=O)c2ccc([N+](=O)[O-])cc2)c1 (stereo not drawn) [Compound A1] | – | 24 nM | – | –
CCC(C)(C)C(=O)C(=O)N1CCCCC1C(=O)OC(CCc1ccc(OC)c(OC)c1)c1cccc(OCCNC(=O)CCCOC(=O)NC(Cc2ccccc2)C(O)CN(CC(C)C)S(=O)(=O)c2ccc(N)cc2)c1 (stereo not drawn) [Compound A6] | – | 5.6 nM | – | –
